Results as given in ChEMBL document CHEMBL4765425, “Synthesis of 1,3,4-oxadiazole derivatives with anticonvulsant activity and their binding to the GABA receptor” (Eur J Med Chem, 2020).
Activity calls are given as the source filed them. No cut-off for these calls is given here.

Assays:
Mus musculus [1] = experiment: Anticonvulsant activity in Kunming mouse assessed as reduction in MES-induced seizure at 30 mg/kg, ip measured after 30 mins; type: functional, organism-based
Mus musculus [2] = experiment: Anticonvulsant activity in Kunming mouse assessed as reduction in MES-induced seizure at 100 mg/kg, ip measured after 30 mins; type: functional, organism-based
Mus musculus [3] = experiment: Anticonvulsant activity in Kunming mouse assessed as reduction in ScPTZ-induced seizure at 100 mg/kg, ip measured after 30 mins; type: functional, organism-based
[4] = Neurotoxicity in Kunming mouse at 100 mg/kg, ip measured after 30 mins by rotarod test; type: toxicity, organism-based; conditions: in vivo, 0.5 h
[5] = Neurotoxicity in Kunming mouse at 300 mg/kg, ip measured after 30 mins by rotarod test; type: toxicity, organism-based; conditions: in vivo, 0.5 h
Mus musculus [6] = experiment: Anticonvulsant activity in ip dosed Kunming mouse assessed as reduction in MES-induced seizure measured after 30 mins; type: functional; conditions: 0.5 h
Mus musculus [7] = experiment: Anticonvulsant activity in ip dosed Kunming mouse assessed as reduction in ScPTZ-induced seizure measured after 30 mins; type: functional; conditions: 0.5 h
[8] = Neurotoxicity in ip dosed Kunming mouse measured after 30 mins by rotarod test; type: toxicity, organism-based; conditions: in vivo
[9] = Protection index, ratio of TD50 for neurotoxicity in ip dosed Kunming mouse to ED50 for anticonvulsant activity in ip dosed MES-induced Kunming mouse; type: toxicity, organism-based; conditions: in vivo, read-out: TI
[10] = Protection index, ratio of TD50 for neurotoxicity in ip dosed Kunming mouse to ED50 for anticonvulsant activity in ip dosed ScPTZ-induced Kunming mouse; type: toxicity, organism-based; conditions: in vivo, read-out: TI
[11] = Displacement of [3H]flunitrazepam from GABA-A receptor benzodiazepine site in mouse cerebellum synaptosomal membrane; type: subcellular, Synaptosome
Rattus norvegicus [12] = experiment: Effect on GABA level in Wistar rat brain assessed as increase in GABA level at 30 mg/kg, ip measured after 2 hrs; type: functional, organism-based
Rattus norvegicus [13] = experiment: Effect on GABA level in Wistar rat brain assessed as increase in GABA level at 30 mg/kg, ip measured after 7 days; type: functional, organism-based; conditions: time 7.0 day
Rattus norvegicus [14] = experiment: Anxiolytic activity in Wistar rat assessed as increase in time spent in open sided arms at 1 mg/kg, ip measured for 5 mins by elevated plus maze test; type: functional, organism-based
Rattus norvegicus [15] = experiment: Anxiolytic activity in Wistar rat assessed as increase in time spent in open sided arms at 1 mg/kg, ip measured for 5 mins in presence of GABAA receptor antagonist by elevated plus maze test; type: functional, organism-based
Mus musculus [16] = experiment: Anticonvulsant activity in Kunming mouse assessed as reduction in ScPTZ-induced seizure at 30 mg/kg, ip measured after 30 mins; type: functional, organism-based
[17] = Neurotoxicity in Kunming mouse at 30 mg/kg, ip measured after 30 mins by rotarod test; type: toxicity, organism-based; conditions: in vivo, 0.5 h

In the case of CCCCCSc1nnc(COc2ccc3c(c2)CCC(=O)N3)o1, the Activity (Mus musculus [1]) is reported as “Active”, the Activity (Mus musculus [2]) is reported as “Active” and the Activity (Mus musculus [3]) is reported as “Active”. The Activity [4] was “Non-Toxic”, the Activity [5] was “Non-Toxic” and the ED50 (Mus musculus [6]) was 8.9 mg/kg. The ED50 (Mus musculus [7]) was 10.2 mg/kg, the TD50 at 0.5 h [8] was 575 mg/kg and the selectivity ratio [9] was 64.6. The selectivity ratio [10] was 56.4, the IC50 [11] was 110 nM and the Activity (Rattus norvegicus [12]) was “Active”. For the same compound, the Activity (Rattus norvegicus [13]) was “Active”, the Activity (Rattus norvegicus [14]) was “Active” and the Activity (Rattus norvegicus [15]) was “inactive”. For the same compound, the Activity (Mus musculus [16]) was “Active”.
For NC(=O)N1c2ccccc2C=Cc2ccccc21 [CARBAMAZEPINE], the Activity (Mus musculus [1]) was “Active”, the Activity [17] was “Non-Toxic” and the ED50 (Mus musculus [6]) was 11.8 mg/kg. The selectivity ratio [9] was 6.4.
